Source: patent US20050228016A1, “TETRAHYDROQUINOLINES FOR MODULATING THE EXPRESSION OF EXOGENOUS GENES VIA AN ECDYSONE RECEPTOR COMPLEX” (priority 2002, published 2005)

The molecules below were run against T1, Gal4DBD/AaEcR (DEF) (Aedes aegypti, UniProt P49880) (assay: cell-based). Settings: 33 μM; 3T3 cells; 48 h; average of two wells.
T1 construct: The wildtype D, E, and F domains from mosquito Aedes aegypti EcR; expressed in transfected cells; host or cells: 3T3 cells
Type: cell-based
In short: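 Single-dose ligand testing at 33 μM, applied in serum medium after 4 h transfection. Host was 3T3 cells carrying Gal4DBD/AaEcR (DEF) plus a 5× GAL4 RE-driven firefly luciferase reporter (pFRLuc).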

T1 sequence (P28704 286-520 A311G/G315S/G445S/I449V): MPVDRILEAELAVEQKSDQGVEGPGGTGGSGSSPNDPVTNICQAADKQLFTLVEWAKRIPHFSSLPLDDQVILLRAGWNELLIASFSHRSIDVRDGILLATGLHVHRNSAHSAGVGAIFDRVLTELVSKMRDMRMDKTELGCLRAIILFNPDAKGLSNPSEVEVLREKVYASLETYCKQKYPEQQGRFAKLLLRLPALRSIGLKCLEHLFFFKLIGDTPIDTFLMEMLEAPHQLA
T1 sequence (P49880 405-776): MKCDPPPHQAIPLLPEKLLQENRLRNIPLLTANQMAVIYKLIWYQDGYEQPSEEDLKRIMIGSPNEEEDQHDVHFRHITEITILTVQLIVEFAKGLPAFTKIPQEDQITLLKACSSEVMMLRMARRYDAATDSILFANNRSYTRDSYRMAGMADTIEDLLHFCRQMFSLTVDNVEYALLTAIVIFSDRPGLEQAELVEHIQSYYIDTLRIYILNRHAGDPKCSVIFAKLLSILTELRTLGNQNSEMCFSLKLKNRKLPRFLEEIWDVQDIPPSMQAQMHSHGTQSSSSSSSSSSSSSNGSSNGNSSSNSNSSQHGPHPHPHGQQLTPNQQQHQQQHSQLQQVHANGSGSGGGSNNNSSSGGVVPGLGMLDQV

SMILES	Fold Induction Average, AA_3T3V1 Assay 33 μM [fold]
Cc1ccc(C(=O)N2c3ccccc3C(Nc3ccccc3)CC2C)cc1 (mixture of isomers) [Compound I-39]	182
Cc1ccc(C(=O)N2c3ccccc3C(Nc3ccccc3Cl)CC2C)cc1 (mixture of isomers) [Compound I-41]	2
C[C@H]1C[C@H](Nc2ccccc2)c2ccccc2N1C(=O)c1ccc(F)c(F)c1 (relative stereo) [Compound I-15]	132
Cc1ccc(C(=O)N2c3ccccc3[C@@H](Nc3ccccc3)C[C@@H]2C)cc1F (relative stereo) [Compound I-16]	376
C[C@H]1C[C@H](Nc2ccccc2)c2ccccc2N1C(=O)c1ccc(C(F)(F)F)c(F)c1 (relative stereo) [Compound I-17]	135
Cc1ccc(N[C@H]2C[C@H](C)N(C(=O)c3ccc(C)c(F)c3)c3ccc(C)cc32)cc1 (relative stereo) [Compound I-22]	132
C[C@H]1C[C@H](Nc2ccc(F)cc2)c2cc(F)ccc2N1C(=O)c1ccc(F)c(F)c1 (relative stereo) [Compound I-26]	124
C[C@H]1C[C@H](Nc2ccc(F)cc2)c2cc(F)ccc2N1C(=O)c1ccc(C(F)(F)F)c(F)c1 (relative stereo) [Compound I-27]	112
Cc1ccc(N[C@@H]2C[C@H](C)N(C(=O)c3ccc(C)c(F)c3)c3ccc(C)cc32)cc1 (relative stereo) [Compound I-28]	1
C[C@H]1C[C@@H](Nc2ccccc2)c2ccccc2N1C(=O)c1ccc2c(c1)OCO2 (relative stereo) [Compound I-31]	48
COc1ccc(C=CC(=O)N2c3ccccc3[C@@H](Nc3ccccc3)C[C@@H]2C)cc1OC (relative stereo) [Compound I-146]	4
COc1ccc(C(=O)N2c3ccc(C)cc3[C@H](Nc3ccc(C)cc3)C[C@@H]2C)cc1 (stereo in doubt) [Compound I-152]	1
Cc1ccc(NC2CC(C)N(C(=O)c3ccc4c(c3)OCO4)c3ccc(C)cc32)cc1 (stereo not drawn) [Compound I-34]	1
COc1cccc(C(=O)N2c3ccccc3C(Nc3ccccc3)CC2C)c1C (stereo not drawn) [Compound I-50]	21
COc1cccc(C(=O)N2c3ccc(F)cc3C(Nc3ccc(F)cc3)CC2C)c1C (stereo not drawn) [Compound I-58]	124
CC(=O)N(c1ccccc1)C1CC(C)N(C(=O)C=Cc2ccccc2)c2ccccc21 (stereo not drawn) [Compound I-119]	1

Each molecule was assayed on GAL4 DBD-CfEcR(DEF)/VP16AD-MmRXRE (assay: not given). Settings: CHO 13B3 clone, 48 h, average of two wells.
Source text: GAL4 DBD-CfEcR(DEF)/VP16AD-MmRXRE: The wild-type D, E, and F domains from spruce budworm Choristoneura fumiferana EcR (“CfEcR-DEF”; SEQ ID NO: 1) were fused to a GAL4 DNA binding domain (“Gal4DBD1-147”; nucleotides 31 to 471 of SEQ ID NO: 2) and placed under the control of the SV40e promoter of pM vector (PT3119-5, Clontech, Palo Alto, Calif.). The D and E domains from Mus Musculus RXR (“MmRXR-DE”; SEQ ID NO: 22) were fused to the transactivation domain from VP16 (“VP16AD”; SEQ ID NO: 5) and placed under the control of the SV40e promoter of the pVP16 vector (PT3127-5, Clontech, Palo Alto, Calif.).
CHO cells were transiently transfected with transcription cassettes for GAL4 DBD-CfEcR(DEF) and for VP16AD-MmRXRE controlled by SV40e promoters. Stably transfected cells were selected using Hygromycin. Individually isolated CHO cell clones were transiently transfected with a GAL4 RE-luciferase reporter (pFR-Luc, Stratagene, La Jolla, Calif.). The 13B3 clone was selected using Zeocin.
Cells were trypsinized and diluted to a concentration of 2.5×10^4 cells mL. 100 μL of cell suspension was placed in each well of a 96 well plate and incubated at 37° C. under 5% CO2 for 24 h. Ligand stock solutions were prepared in DMSO and diluted 300 fold for all treatments.
Luciferase reporter gene expression was measured 48 h after cell treatment using Bright-Glo™ Luciferase Assay System from Promega (E2650). Luminescence was detected at room temperature using a Dynex MLX microtiter plate luminometer.
Each assay was conducted in two separate wells, and the two values were averaged. Fold inductions were calculated by dividing relative light units (“RLU”) in ligand treated cells with RLU in DMSO treated cells.

SMILES	Fold Induction Average, 13B3V1 Assay 33 μM [fold]
Cc1ccc(C(=O)N2c3ccccc3C(Nc3ccccc3)CC2C)cc1 (mixture of isomers) [Compound I-39]	1
Cc1ccc(C(=O)N2c3ccccc3C(Nc3ccccc3Cl)CC2C)cc1 (mixture of isomers) [Compound I-41]	1
C[C@H]1C[C@H](Nc2ccccc2)c2ccccc2N1C(=O)c1ccc(F)c(F)c1 (relative stereo) [Compound I-15]	1
Cc1ccc(C(=O)N2c3ccccc3[C@@H](Nc3ccccc3)C[C@@H]2C)cc1F (relative stereo) [Compound I-16]	1
C[C@H]1C[C@H](Nc2ccccc2)c2ccccc2N1C(=O)c1ccc(C(F)(F)F)c(F)c1 (relative stereo) [Compound I-17]	1
Cc1ccc(N[C@H]2C[C@H](C)N(C(=O)c3ccc(C)c(F)c3)c3ccc(C)cc32)cc1 (relative stereo) [Compound I-22]	1
C[C@H]1C[C@H](Nc2ccc(F)cc2)c2cc(F)ccc2N1C(=O)c1ccc(F)c(F)c1 (relative stereo) [Compound I-26]	95
C[C@H]1C[C@H](Nc2ccc(F)cc2)c2cc(F)ccc2N1C(=O)c1ccc(C(F)(F)F)c(F)c1 (relative stereo) [Compound I-27]	6
Cc1ccc(N[C@@H]2C[C@H](C)N(C(=O)c3ccc(C)c(F)c3)c3ccc(C)cc32)cc1 (relative stereo) [Compound I-28]	1
C[C@H]1C[C@@H](Nc2ccccc2)c2ccccc2N1C(=O)c1ccc2c(c1)OCO2 (relative stereo) [Compound I-31]	1
COc1ccc(C=CC(=O)N2c3ccccc3[C@@H](Nc3ccccc3)C[C@@H]2C)cc1OC (relative stereo) [Compound I-146]	1
COc1ccc(C(=O)N2c3ccc(C)cc3[C@H](Nc3ccc(C)cc3)C[C@@H]2C)cc1 (stereo in doubt) [Compound I-152]	2
Cc1ccc(NC2CC(C)N(C(=O)c3ccc4c(c3)OCO4)c3ccc(C)cc32)cc1 (stereo not drawn) [Compound I-34]	1
COc1cccc(C(=O)N2c3ccccc3C(Nc3ccccc3)CC2C)c1C (stereo not drawn) [Compound I-50]	1
COc1cccc(C(=O)N2c3ccc(F)cc3C(Nc3ccc(F)cc3)CC2C)c1C (stereo not drawn) [Compound I-58]	30
CC(=O)N(c1ccccc1)C1CC(C)N(C(=O)C=Cc2ccccc2)c2ccccc21 (stereo not drawn) [Compound I-119]	3

The molecules below were run against T2, Bombyx mori EcR (VP16-BmEcR, CVBE) (Bombyx mori, UniProt P49881) (assay: Z3 assay (HEK-293 clone Z3 with CVBE and 6x EcRE LacZ, β-galactosidase reporter)). Settings: 48 h, average of two wells.
T2 construct: expressed in transfected cells
T2 sequence (P49881 86-606): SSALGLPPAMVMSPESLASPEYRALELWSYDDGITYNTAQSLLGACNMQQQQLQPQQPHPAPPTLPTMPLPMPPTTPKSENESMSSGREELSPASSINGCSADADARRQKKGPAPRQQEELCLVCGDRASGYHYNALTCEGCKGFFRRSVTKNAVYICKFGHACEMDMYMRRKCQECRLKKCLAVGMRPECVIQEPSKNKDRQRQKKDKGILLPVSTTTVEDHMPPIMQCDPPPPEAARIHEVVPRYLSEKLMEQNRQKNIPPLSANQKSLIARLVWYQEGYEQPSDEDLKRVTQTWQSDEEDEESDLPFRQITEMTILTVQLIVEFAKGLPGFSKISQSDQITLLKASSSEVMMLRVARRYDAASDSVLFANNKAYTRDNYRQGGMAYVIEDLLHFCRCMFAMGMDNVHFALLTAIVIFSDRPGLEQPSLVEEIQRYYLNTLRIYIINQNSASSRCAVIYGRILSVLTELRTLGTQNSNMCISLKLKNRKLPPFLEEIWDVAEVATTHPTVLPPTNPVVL
Type: cell-based

SMILES	Fold Induction Average, Z3V1 Assay 33 μM [fold]
Cc1ccc(C(=O)N2c3ccccc3C(Nc3ccccc3)CC2C)cc1 (mixture of isomers) [Compound I-39]	4
Cc1ccc(C(=O)N2c3ccccc3C(Nc3ccccc3Cl)CC2C)cc1 (mixture of isomers) [Compound I-41]	1
C[C@H]1C[C@H](Nc2ccccc2)c2ccccc2N1C(=O)c1ccc(F)c(F)c1 (relative stereo) [Compound I-15]	20
Cc1ccc(C(=O)N2c3ccccc3[C@@H](Nc3ccccc3)C[C@@H]2C)cc1F (relative stereo) [Compound I-16]	27
C[C@H]1C[C@H](Nc2ccccc2)c2ccccc2N1C(=O)c1ccc(C(F)(F)F)c(F)c1 (relative stereo) [Compound I-17]	9
Cc1ccc(N[C@H]2C[C@H](C)N(C(=O)c3ccc(C)c(F)c3)c3ccc(C)cc32)cc1 (relative stereo) [Compound I-22]	3
C[C@H]1C[C@H](Nc2ccc(F)cc2)c2cc(F)ccc2N1C(=O)c1ccc(F)c(F)c1 (relative stereo) [Compound I-26]	152
C[C@H]1C[C@H](Nc2ccc(F)cc2)c2cc(F)ccc2N1C(=O)c1ccc(C(F)(F)F)c(F)c1 (relative stereo) [Compound I-27]	119
Cc1ccc(N[C@@H]2C[C@H](C)N(C(=O)c3ccc(C)c(F)c3)c3ccc(C)cc32)cc1 (relative stereo) [Compound I-28]	1
C[C@H]1C[C@@H](Nc2ccccc2)c2ccccc2N1C(=O)c1ccc2c(c1)OCO2 (relative stereo) [Compound I-31]	1
COc1ccc(C=CC(=O)N2c3ccccc3[C@@H](Nc3ccccc3)C[C@@H]2C)cc1OC (relative stereo) [Compound I-146]	1
COc1ccc(C(=O)N2c3ccc(C)cc3[C@H](Nc3ccc(C)cc3)C[C@@H]2C)cc1 (stereo in doubt) [Compound I-152]	1
Cc1ccc(NC2CC(C)N(C(=O)c3ccc4c(c3)OCO4)c3ccc(C)cc32)cc1 (stereo not drawn) [Compound I-34]	1
COc1cccc(C(=O)N2c3ccccc3C(Nc3ccccc3)CC2C)c1C (stereo not drawn) [Compound I-50]	115
COc1cccc(C(=O)N2c3ccc(F)cc3C(Nc3ccc(F)cc3)CC2C)c1C (stereo not drawn) [Compound I-58]	147
CC(=O)N(c1ccccc1)C1CC(C)N(C(=O)C=Cc2ccccc2)c2ccccc21 (stereo not drawn) [Compound I-119]	1
